This experiment relates to lepidoptera eggs (Spodoptera exigua). Put plainly: Direct contact overlay LC assay, caterpillar eggs. To be noted: for Times more active in the C13 blend than when tested alone: LC50 alone vs share of C13 LC50 (1% solution); for Direct AVG LC50 / Estimated LC50: mortality after five days; for Direct AVG LC50: diluent 0.25% Tween 81; for Estimated LC50: nested set, probit analysis, tested alone in 0.25% Tween 81.

“And” between values parts separate entries of the source, which are not always exact repeats. Equal values may be shown once.

Source text: The objective of this study was to evaluate the effects of synthetic blend-based composition C13 and each of its primary terpenes against lepidoptera eggs (Spodoptera exigua) in a laboratory assay that mimics contact activity on a leaf surface in the field. This was done by estimating the LC50 of the solvent/carrier (in this instance, vegetable oil) and the three primary terpenes alone, and comparing those values to the estimated LC50 of C13.
A requirement of the Probit model used to estimate the LC50 is that there should be a dose response with two rates above 50% mortality and two rates below 50%. Because of their solubility it was not possible to get this with a neat solution of oil or terpenes so, a series of preliminary assays were conducted to find a suitable carrier, testing solutions compatible with the terpenes and carrier. To achieve a stable emulsion of the individual terpenes that could be pipetted across a suitable range of concentrations, it was decided to use a universal diluent containing 0.25% Tween™ 81.
Stock solutions were transferred to deep, 96-well, micro-titre plates. 1.4 ml of each stock solution was placed in the 2 ml wells that ran across the top row of the deep well plate (Row A; wells 1-12, see Table 15). A digital 12-channel Matrix pipette was then used to add 700 uls of 0.25% Tween 81 in deionized water (DI H2O) to the remaining wells (Rows B-H; 1-12). The 12 channel pipette was used to perform serial dilutions by mixing, aspirating, and then dispensing 700 ul of each stock solution from row A into the adjoining 700 ul of diluent in row B. This process was repeated seven times to give a final concentration of eight, 50% serially diluted samples containing 700 μl.
An eight channel Matrix pipette was then used to mix, aspirate and distribute all eight of the serial dilutions from the deep well plate to a labeled 96 well plate containing a wheat germ/casein-based artificial diet. Aliquots containing 240 μl of each dilution were aspirated and 40 μl were dispensed into to six wells across the surface of the micro-titre plate containing 200 μl of artificial diet/well. Two samples were tested on every plate with the one sample in rows A through H—columns 1 to 6, and the second sample in wells A through H columns 7 to 12. The last two samples in each assay contain the Javelin standard and 0.25% Tween in DI water as the untreated controls.
The samples were then dried under forced air at room temperature. This deposits a thin film of the treatment on the surface of the diet much the same way as applying a spray solution to a leaf surface. Once the plates were dried, then eggs were put in each well using a Matrix pipette with 5-10 temporally synchronized caterpillar eggs suspended in 20 μl of a 0.1% agar solution. This rehydrates the surface film and then the egg:agar was dried under forced air, a second time. Once the agar solution was dry the plates were heat sealed with a perforated Mylar film that seals the insects in the well, but allows for gas exchange. The plates were incubated at 28° C. on a 16:8 light:dark cycle. After five days the numbers of live insects in each row were recorded. Mortality was recorded as the number dead over the number treated and expressed as control corrected percent mortality.

In the case of `C=C(C)[C@H]1CC=C(C)CC1` [d-limonene], the “Times more active in the C13 blend than when tested alone” value is 64 X; the “Direct AVG LC50” value is given as 2.093%; the “Estimated LC50” value was 1.9% and 1.905%.
For the compound `Cc1ccc(C(C)C)cc1` [p-cymene], the “Times more active in the C13 blend than when tested alone” value is 72 X; the “Direct AVG LC50” value was found to be 1.539%; the “Estimated LC50” value is 2.68% and 2.682%.
Turning to `CC1=CC=C(C(C)C)CC1` [α-terpinene], the “Direct AVG LC50” value is recorded as 4.336%; the “Estimated LC50” value is 4.77% and 4.776%.

The values are drawn from US20100316738A1, “METHODS OF INHIBITING, PREVENTING, KILLING AND/OR REPELLING INSECTS USING SIMULATED BLENDS OF CHENOPODIUM EXTRACTS” (priority 2009, published 2010).
